Consider 1 molecule from patent publication US12257246B2, “Composition of 2,4,6-trifluoro-n-[6-(1-methyl-piperidin-4-carbonyl)-pyridin-2-yl[-benzamide” (CoLucid Pharmaceuticals, Inc., priority 2009, dated 2025).

Series [1] in a line: Oral pharmacokinetics (solution and tablet), Study 1 and Study 2. The format is in vivo, human. How it is done:
Plasma samples were analyzed for Compound I using a validated liquid chromatography with tandem mass spectrometric detection (LC/MS/MS) method. Relative bioavailability of tablet and solution formulations for AUCt, AUC∞, and Cmax were assessed. A linear mixed effects model was fitted to the log-transformed PK parameters (AUCt, AUC∞, and Cmax). Included in the model were treatment, period, and sequence as fixed factors and subjects nested within sequences as a random factor. For the relative bioavailability analysis, the tablet formulation was the test and the solution formulation was the reference. 90% confidence intervals and ratios for the relative mean in-transformed AUCt, AUC∞, and Cmax of the test to reference formulation were calculated.

Another series concerns patients with migraine. Nature of the series: Intravenous dose-finding study in acute migraine: tolerability and safety. The class given is in vivo, human. How it is done:
The study used a prospective, randomized, double-blind, placebo-controlled design with group-sequential adaptive-treatment assignment (Olesen J et al., N Engl J Med 2004: 350: 1104-10; Hall D B et al., Contemporary Clinical Trials 2005; 26: 349-63). […] The first cohort was allocated to the 2.5 mg dose level. The dose used in subsequent cohorts depended on the headache response (moderate or severe headache reduced to mild or none at 2 hours) of the previous cohort: if 2 or less of the 4 active-treated patients had responded, the dose was increased, and if 3 or more of the 4 active-treated patients had responded, the dose was reduced. The dose adjustment rules were chosen to identify doses of Compound I with efficacy similar to or better than an oral triptan. […] The occurrence of a drug-related serious adverse event would lead to automatic suspension of the randomization pending a safety review.
Data were entered concurrently into an online electronic data capture system. Patients were discharged from the clinic after 4 h and continued to record migraine symptoms and adverse events until 24 h using a diary card.

Entries after “also recorded” stand apart in the source; their conditions may differ.

As usually defined, the Tmax is the time from dosing to the highest level. For orientation: bioavailability means the share of a dose that reaches the circulation, judged against a reference dose that is usually intravenous. For `CN1CCC(C(=O)c2cccc(NC(=O)c3c(F)cc(F)cc3F)n2)CC1` [Compound I, 2,4,6-trifluoro-N-[6-(1-methyl-piperidin-4-ylcarbonyl)-pyridin-2-yl]-benzamide], in series [1] (both sexes, human, plasma, 50 to 400 mg tablet formulation, oral, read-out: Median tmax), the Tmax was 1.5 to 2.5 h. The oral bioavailability result in series [1] (human, in vivo, po) is “orally bioavailable”. Besides, the bioavailability in series [1] (male, human, plasma, 200 mg oral dose, read-out: relative bioavailability of the tablet to the solution) is 100%. For the same molecule, the “dose linearity / proportionality of oral pharmacokinetics” value in series [1] (oral 25 to 400 mg, males and females) is listed as “dose linearity; also recorded: dose proportionality”. Besides, the “oral dose achieving plasma levels previously associated with efficacy by the i.v. route” value in series [1] (solution and tablet) is on record as ≥ 50 mg. Moreover, in the series with patients with migraine (2.5 mg iv), the “Patients with adverse event Fatigue” value came to 0.0%, the “Patients with adverse event Feeling of relaxation” value (shortened to “Patients … of relaxation”) is reported as 0.0%, the “Patients with adverse event Paresthesia” value amounted to 0.0% and the “Patients with adverse event Sensation of heaviness” value (from here on “Patients … of heaviness”) is 0.0%. Also, in the series with patients with migraine (5 mg iv), the “Patients … of relaxation” value amounted to 0.0%, the “Patients with adverse event Paresthesia” value came to 0.0% and the “Patients … of heaviness” value was determined as 0.0%. In the series with patients with migraine (10 mg iv), the “Patients … of relaxation” value amounted to 0.0%. Besides, in the series with patients with migraine (45 mg iv), the “Patients with adverse event Fatigue” value is reported as 0.0%, the “Patients … of relaxation” value was 0.0% and the “Patients … of heaviness” value was determined as 0.0%. Moreover, the “patients reporting adverse events” value in the series on patients with migraine (all iv doses 2.5 to 45 mg (placebo 43%)) was found to be 65%. Further, the tolerability entry in the series with patients with migraine (doses above 60 mg intravenously over 20 minutes) is given as “not well tolerated”. In addition, in the series on patients with migraine (iv), the “serious adverse events or withdrawals” value is “no serious adverse events or withdrawals due to non-serious adverse events”; the “vital signs, ECG, hematological and clinical chemistry parameters” value is “No clinically significant changes; also recorded: no clinically significant abnormalities”. The tolerability entry in the series on patients with migraine (iv 2.5 to 45 mg over 20 min) is recorded as “generally well tolerated”. In the series with patients with migraine (iv infusion), the triptan-like chest symptoms result is listed as “No patient reported triptan-like chest symptoms; also recorded: no patient-reported chest symptoms or chest discomfort”. In addition, in “Solubility (statement)”, the solubility entry was “high solubility”.
